The test system of data set [1] is influenza A/WSN/1933 (H1N1). The experiment in a line: CPE assay at different multiplicities of infection (Example 94). To be noted: read-out: EC50 H1N1 A/WSN/1933 (CPE in MDCK cells). Type of data set: cell-based, influenza A virus.
The conditions of data set [2]: 1 mg/mL in 1xPBS, over a week at 60° C.; HPLC 240 nm.
Data set [3] relates to INFV A H1N1 A/Texas/36/91. Put plainly: Lethal mouse influenza model, Study #1. The format is in vivo, female BALB/c mice. Conditions: 20 mg/kg B.I.D PO 5 days from 8 h post infection.
Data set [4] deals with INFV A H3N2 A/Hong Kong/1/68. The experiment in a line: Lethal mouse influenza model, Study #2. Type of data set: in vivo, female BALB/c mice. To be noted: 20 mg/kg PO B.I.D for 5 days from 8 h post infection.
For data set [5], the system named is INFV A H1N1 A/Texas/36/91. The experiment in a line: Lethal mouse influenza model, Study #3 (dosing 28 days before challenge). Conditions: 20 mg/kg PO twice daily 5 days from 8 h post infection. Type of data set: in vivo, female BALB/c mice. An excerpt:
The experiment comprised 7 groups of 5 mice. At day 0, all mice were challenged with 1×LD90 H1N1 A/Texas/36/91. Groups 1-6 received treatment IV, 28 days before challenge (Table 12). Vehicle (PBS) was included as an additional negative control. […] All mice were monitored for survival (FIGS. 31A-31F) for 15 days after challenge.

Data set [6] has as its system INFV A H1N1 A/Texas/36/91. The experiment in a line: Lethal mouse influenza model, Study #4 (treatment window). The format is in vivo, female BALB/c mice. An excerpt:
The experiment comprised 13 groups of 5 mice. At day 0, all mice were challenged with 1×LD90 H1N1 A/Texas/36/91. […] Vehicle (PBS) and Fc only were included as negative controls. […] All mice were monitored for survival (FIGS. 32A-32F) for 15 days after challenge.

The test system of the next data set is INFV CA/09 virus. Type of data set: cell-based, influenza virus.
Data set [7] has as its system Influenza A virus (INFV CA/09). Type of data set: cell-based.
Another data set has as its system INFV A (A/CA/09 H1N1). Type of data set: cell-based, influenza A virus.
Another data set deals with INFV B (B/Brisbane). Type of data set: cell-based, influenza B virus.
Another data set concerns MDCK cells. Conditions: four days post treatment, dilutions starting at 10 μM.
Another data set deals with IAV H1N1 A/Texas/36/91. On the set-up: species or system female BALB/c mice. To be noted: mouse, in vivo.
Data set [8] has as its system A/Puerto Rico/08/1934 (PR8), H1N1. Type of data set: in vivo, female BALB/c mice. Conditions: for % Survival: 10 days.
For data set [9], the system named is Influenza A/Puerto Rico/8/1934 (H1N1). On the set-up: species or system female BALB/c mice. To be noted: mouse, in vivo.
Data set [10] has as its system Influenza B/Brisbane/60/2008. Details: species or system female BALB/c mice. Conditions: mouse, in vivo.
Data set [11] deals with H1N1 A/Netherlands/602/2009. Type of data set: cell-based, influenza A virus.

Where “and” joins values, the source holds several entries; their conditions need not be identical. Identical values can stand only once. Like-named read-outs stand apart in the source and are kept apart here. Some results are limits rather than exact numbers.

Turning to `O=C1c2c(O)c(=O)ccn2N([C@@H]2c3ccccc3SCc3c2ccc(F)c3F)[C@@H]2COCCN12` [baloxavir], the EC50 in [1] (Influenza A virus, MDCK, MOI 0.001) was 5 nM; in [1] (Influenza A virus, MDCK, MOI 0.01), 4 nM; in [1] (Influenza A virus, MDCK, MOI 0.1), 79 nM; in [1] (Influenza A virus, MDCK, MOI 1) it was over 100 nM.
In data set [2], `C#CCOCCOCCOCCOCCNC(=O)O[C@@H]([C@@H]1OC(C(=O)O)=C[C@H](NC(=N)N)[C@H]1NC(C)=O)[C@H](O)CO` [Int-4] yielded a degredation of 15%.
Regarding `CCOC(=O)C1=C[C@@H](OC(CC)CC)[C@H](NC(C)=O)[C@@H](N)C1` [Oseltamivir phosphate], in [3], the “% Survival” value came to 100%. Further, the “Mean Survival” value in [3] is listed as 15; in data set [4], 15 days. For the same compound, the results for the survival entry in data set [5], in data set [6] (20 mg/kg PO bid × 5 days initiated at 48 hrs post-infection) and in data set [6] (20 mg/kg PO bid × 5 days initiated at 72 hrs post-infection) were “survived”, 0% and 20%, respectively.
By CC50 is commonly meant the concentration at which the toxic effect on the cells reaches its halfway point. As to `CC(=O)N[C@H]1[C@H]([C@H](O)[C@H](O)CO)OC(C(=O)O)=C[C@@H]1N=C(N)N` [Zanamivir, zanamivir], the EC50 with INFV CA/09 virus worked out at 469 nM; in data set [7], 496 nM; with INFV A (A/CA/09 H1N1), 265 nM; in the data set on INFV B (B/Brisbane) it was 383 nM; in data set [1] (MOI 0.001), 137 nM; in [1] (MOI 0.01), 938 nM. Also, the EC50 in data set [1] (MOI 0.1) and in [1] (MOI 1) was over 10000 nM in each case. This compound gave a CC50 with MDCK cells of over 10000 nM.
For the compound `CCOC(=O)C1=C[C@@H](OC(CC)CC)[C@H](NC(C)=O)[C@@H](N)C1` [Oseltamivir, oseltamivir], the “% Survival” value in data set [4] was found to be 80%; in data set [8], 20%. In addition, the “% Survival (Day 14)” value in the data set on IAV H1N1 A/Texas/36/91 worked out at 100%. Further, the EC50 in data set [1] (MOI 0.001) was 525 nM; in data set [1] (MOI 0.01), 1900 nM; in data set [1] (MOI 0.1) it was over 10000 nM; in data set [1] (MOI 1), over 10000 nM. Moreover, the “Log reduction (PFU/mL)” value in [9] is 0.24 and 0.52. Also, in data set [10], the Body weights was 89 gm and 85 gm and 79 gm and 100 gm and 98 gm and 97 gm. Also, in [10], the survival is on record as 40%. Moreover, the “EC100 (CPE in MDCK cells)” value in data set [11] was about 1000 nM.
On to `C#CCOCCOCCOCCOCCN(C)C(=O)O[C@@H]([C@H]1OC(C(=O)O)=C[C@@H](NC(=N)N)[C@@H]1NC(C)=O)[C@H](O)CO` [Int-80], for which the degredation entry in [2] was “less than 1%”.
Regarding `CC(=O)N[C@H]1[C@H]([C@H](OCC(=O)NCCCCNCCCCNC(=O)CO[C@@H]([C@@H]2OC(C(=O)O)=C[C@H](NC(=N)N)[C@H]2NC(C)=O)[C@H](O)CO)[C@H](O)CO)OC(C(=O)O)=C[C@@H]1NC(=N)N` [Int-11], the entries for the “% Survival” value in [8] and in data set [8] (15 mg/kg) were 0% and 100%, respectively. For the same compound, the “delay in death relative to vehicle and hIgG1 Fc only controls” value in [8] (mouse, in vivo) is recorded as at most 2 days. Also, the “greater cumulative dose required for efficacy equivalent to conjugate 6 (mass basis)” value in [8] (mouse, in vivo) is on record as 500 ×.

Values taken from patent US12569565B2, “Compositions and methods for the treatment of viral infections” (Cidara Therapeutics, Inc., priority 2018, dated 2026).
